This data set is described as follows: Drying of the hydrate form to remove water. The format is physicochemical. Conditions: hydrate form having moisture content about 6.64%; drying at 55° C. temperature for 24 hours. The source says: The hydrate form of 6-carboxy-2-(3,5-dichlorophenyl)-benzoxazole meglumine of Formula-IA according to the present disclosure having moisture content in the range of about 3.5% to about 9% preferably about 5 to 7%. The hydrate form of 6-carboxy-2-(3,5-dichlorophenyl)-benzoxazole meglumine salt of Formula-IA having moisture up to 15 to 20% but the only 5 to 7% water is present in crystal lattice and the excess water molecule is present in surface of the Tafamidis meglumine crystal. […] The hydrate form of 6-carboxy-2-(3,5-dichlorophenyl)-benzoxazole meglumine salt of Formula-IA having moisture content about 6.64% and moisture content about 15% are resulting the same PXRD diffractogram. This confirms the water molecules up to moisture content about 6% is present in crystal lattice and the excess water is present in surface of the crystal. In an another embodiment, the present disclosure, the hydrate form of 6-carboxy-2-(3,5-dichlorophenyl)-benzoxazole meglumine having DSC as depicted in FIG. 1 and having TGA as depicted in FIG. 2.

For `O=C(O)c1ccc2nc(-c3cc(Cl)cc(Cl)c3)oc2c1` [6-carboxy-2-(3,5-dichlorophenyl)-benzoxazole meglumine], the “water content after drying” value is “not considerably reduced”.

The values are drawn from US20230265059A1, “SOLID STATE FORMS OF 6-CARBOXY-2-(3, 5-DICHLOROPHENYL)-BENZOXAZOLE OF FORMULA-I AND PHARMACEUTICALLY ACCEPTABLE SALTS THEREOF” (NURAY CHEMICALS PRIVATE LIMITED, priority 2020, published 2023).
